Reference: patent US9359392B2, “Dendrimer scaffolds for pharmaceutical use” (Victoria Link Limited, priority 2012, dated 2016)

What was measured:
sheep spleen cells = test: Assessment of potential cytotoxicity: percentage cell viability versus a PBS control; format: cell-based; conditions: 36.5° C.
Protocol: The potential cytotoxic properties of compounds 12, 13 and 14 were evaluated by measuring percentage cell viability of sheep spleen cells versus a PBS control after 24 h and 48 h exposure to 0.01, 0.1 and 1 mg/mL solutions of each compound in PBS at 36.5° C.

[1] = Stability under forcing degradation conditions with HPLC monitoring; format: physicochemical
Excerpt: Assessment of Potential Cytotoxicity

[2] = Water relaxivity measurements (T1, inversion recovery NMR); format: physicochemical; conditions: 500 MHz (11.75 T), 30° C., aqueous solution
Protocol: Water relaxivity measurements provide an indication of whether a material will increase contrast in MRI imaging techniques. Water relaxivity measurements were performed in aqueous solutions. T1 measurements were made on a 500 MHz (11.75 T) Bruker NMR using a standard inversion recovery sequence (180-t-90) at 30° C. The relaxivity of water in D2O in the presence of (meglumine)2[Gd(III)(DPTA)(OH2)]

[3] = comparator salt, stated without test; cited from earlier work

Compound | Cell viability (sheep spleen cells; 0.01 mg/mL in PBS, 24 h) | Cell viability (sheep spleen cells; 0.01 mg/mL in PBS, 48 h) | Cell viability (sheep spleen cells; 0.1 mg/mL in PBS, 24 h) | Cell viability (sheep spleen cells; 0.1 mg/mL in PBS, 48 h) | Cell viability (sheep spleen cells; 1 mg/mL in PBS, 24 h) | Cell viability (sheep spleen cells; 1 mg/mL in PBS, 48 h) | relaxivity of water in D2O [2] | other results
2-Aminoacetic acid(N,N):{6,9-diaza-3-oxa-7-oxononanyl(9,9)}2x,4x,8x^G1,G2,G3:(6-aza-3,11-dioxa-7,10-dioxoundecanyl)16-cascadane [compound 13] | 107% | 97% | 104% | 98% | 106% | 100% | – | degradation ([1]; 24 h in 1% H2O2 at 20° C.): 63%; degradation ([1]; 24 h in 1 M HCl at 20° C.): 12%; degradation ([1]; 24 h in 1 M NaOH at 20° C.): 30%; degradation ([1]; 24 h neat at 40° C.): No observable degradation; degradation ([1]; 24 h neat at 80° C.): 41%
2-Aminoacetic acid(N,N):{6,9-diaza-3-oxa-7-oxononanyl(9,9)}2x,4x,8x^G1,G2,G3:(6-aza-3-oxa-7-oxooctanyl)16-cascadane [compound 14] | 104% | 99% | 104% | 97% | 97% | 90% | – | –
2-Aminoacetic acid(N,N):{6,9-diaza-3-oxa-7-oxononanyl(9,9)}2x,4x,8x^G1,G2,G36:(5-amino-3-oxapentanyl)16-cascadane [compound 12] | 94% | 84% | 92% | 85% | 99% | 87% | – | –
CNC[C@H](O)[C@@H](O)[C@H](O)[C@H](O)CO.CNC[C@H](O)[C@@H](O)[C@H](O)[C@H](O)CO.O=C([O-])CN(CCN(CC(=O)[O-])CC(=O)O)CCN(CC(=O)[O-])CC(=O)O.[Gd+3] [(meglumine)2[Gd(III)(DPTA)(OH2)], reference compound] | – | – | – | – | – | – | 3.84 mM⁻¹ s⁻¹ | –
O=C([O-])CN(CCN(CC(=O)[O-])CC(=O)[O-])CCN(CC(=O)[O-])CC(=O)[O-].[Gd+3].[Na+].[Na+] [Gd-DPTA disodium salt] | – | – | – | – | – | – | – | water solubility [3]: sparingly water soluble
Gadolinium complex of 2-aminoacetic acid(N,N):{6-aza-3-oxahexanyl(6,6)}2x^G1: (carboxymethyl)4-cascadane [34-Gd] | – | – | – | – | – | – | 1.20 mM⁻¹ s⁻¹ | –
